Experiment in all cases: fluorogenic AMC release, Michaelis-Menten fit
Format in all cases: biochemical, Blattella germanica
Common to all, as to details: read-out: Substrate Km (μM) / QAR / Trypsin; 50 mM Tris-HCl pH 8, 0.2% NP40, 1.5 mM CaCl2

Test [1] has as its system E2.
In test [2] the test system is E3.
The subject of test [3] is E1.

Structures are written as SMILES. Residues, ends and D or L forms follow the SMILES beside them. *: point of attachment. AMC = Cc1cc(=O)oc2cc(N*)ccc12; Boc = CC(C)(C)OC(=O)*

On to `Cc1cc(=O)oc2cc(NC(=O)[C@H](CCCNC(=N)N)NC(=O)[C@H](C)NC(=O)[C@H](CCC(N)=O)NC(=O)OC(C)(C)C)ccc12` [QAR, Boc-Glutamine-Alanine-Arginine (QAR)-aminomethylcoumarin] (Boc-Gln-Ala-Arg-{AMC}), for which the Km in test [1] was found to be 2 ± 0.3 µM; in test [2], 3 ± 0.3 µM; in test [3], 3 ± 0.8 µM.

The values above are taken from article PMC5501740 (Clinical and experimental allergy : journal of the British …, 2017).
